Series [1] deals with T1, 5-hydroxytryptamine receptor 2A (Homo sapiens, UniProt P28223). The series can be described thus: Agonist activity at human recombinant 5HT2A receptor expressed in CHOK1 cells assessed as induction of intracellular calcium release by FLIPR assay relative to 5-HT. It counts as functional, cell-based. To be noted: CHO-K1. For orientation: Calcium flux is commonly read through the fluorescence of an indicator in the cells.

Series [2] concerns the target T2, 5-hydroxytryptamine receptor 2C (Homo sapiens) (UniProt P28335).
T2 sequence (whole entry): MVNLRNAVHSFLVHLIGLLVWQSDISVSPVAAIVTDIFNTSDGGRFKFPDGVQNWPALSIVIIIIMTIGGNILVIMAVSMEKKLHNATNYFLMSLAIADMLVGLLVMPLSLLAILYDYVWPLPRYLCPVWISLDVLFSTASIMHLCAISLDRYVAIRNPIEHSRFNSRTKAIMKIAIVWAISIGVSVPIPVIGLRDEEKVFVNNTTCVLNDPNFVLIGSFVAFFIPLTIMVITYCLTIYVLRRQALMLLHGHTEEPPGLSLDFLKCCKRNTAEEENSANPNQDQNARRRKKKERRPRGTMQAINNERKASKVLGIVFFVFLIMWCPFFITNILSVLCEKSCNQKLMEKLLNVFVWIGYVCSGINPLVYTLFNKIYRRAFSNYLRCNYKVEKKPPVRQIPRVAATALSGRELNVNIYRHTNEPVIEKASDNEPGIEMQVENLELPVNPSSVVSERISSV
The series can be described thus: Agonist activity at human recombinant 5HT2C receptor expressed in CHOK1 cells assessed as induction of intracellular calcium release by FLIPR assay relative to 5-HT. Type of series: functional, cell-based. To be noted: CHO-K1.

For series [3], the target named is T3, 5-hydroxytryptamine receptor 2B (Homo sapiens, UniProt P41595). The series can be described thus: Agonist activity at human recombinant 5HT2B receptor expressed in CHOK1 cells assessed as induction of intracellular calcium release by FLIPR assay. It counts as functional, cell-based, CHO-K1.
In series [4] the target is T4, 5-hydroxytryptamine receptor 2C (Homo sapiens, UniProt P28335).
T4 sequence (P28335 whole entry): T2 sequence (whole entry)
The series can be described thus: Agonist activity at human recombinant 5HT2C receptor expressed in CHOK1 cells assessed as induction of intracellular calcium release by FLIPR assay. It counts as functional, cell-based, CHO-K1.

Series [5] concerns the target T1, 5-hydroxytryptamine receptor 2A. The series can be described thus: Agonist activity at human recombinant 5HT2A receptor expressed in CHOK1 cells assessed as induction of intracellular calcium release by FLIPR assay. It counts as functional, cell-based, CHO-K1.
Series [6] addresses T3, 5-hydroxytryptamine receptor 2B. The series can be described thus: Agonist activity at human recombinant 5HT2B receptor expressed in CHOK1 cells assessed as induction of intracellular calcium release by FLIPR assay relative to 5-HT. Type of series: functional, cell-based. The settings on record: CHO-K1.
Series [7] can be described thus: Mean residence time in Wistar rat at 10 mg/kg, iv. It counts as ADME, organism-based. Details: dose 10 mg/kg, route intravenous. The settings on record: in vivo.
A short description of series [8]: Permeability from apical to basolateral side of human Caco2 cells. Type of series: ADME, cell-based. The settings on record: caco-2, read-out: permeability. (Caco-2 cells form a polarised layer with tight junctions and transporters.)
Series [9] relates to Rattus norvegicus. The series can be described thus: Dose normalized AUC in Wistar rat at 30 mg/kg, po. It counts as ADME, organism-based. To be noted: in vivo. Details: dose 30 mg/kg, route oral.
In series [10] the test system is Caco-2. The series can be described thus: Efflux ratio of permeability from […] of human Caco2 cells. It counts as ADME, cell-based.
The target in series [11] is hERG (KCNH2) (Homo sapiens, UniProt Q12809). The series can be described thus: Inhibition of human ERG expressed in CHO cells at 10 uM by whole cell patch-clamp technique. To be noted: CHO cells expressing human ERG. It counts as cell-based.
Series [12] concerns Rattus norvegicus. The series can be described thus: Antiobesity activity in Wistar rat cafteria diet model assessed as weight loss at 100 mg/kg, po after 3 day relative to control. Type of series: functional.
Series [13] can be described thus: Volume of distribution at steady state in Wistar rat at 10 mg/kg, iv and 30 mg/kg, po. Type of series: ADME, organism-based. The settings on record: in vivo, read-out: Vdss.
Series [14] deals with Rattus norvegicus. The series can be described thus: Antiobesity activity in Wistar rat cafteria diet model assessed as weight loss at 30 mg/kg, po after 3 day relative to control. Type of series: functional.
The nature of series [15]: Clearance in Wistar rat at 10 mg/kg, iv and 30 mg/kg, po. It counts as ADME, organism-based. The settings on record: in vivo.
Series [16] is described as follows: Ratio of drug level in CSF to fraction unbound in plasma of Wistar rat at 30 mg/kg, po at 2 hrs. It counts as ADME, organism-based. Details: dose 30 mg/kg, route oral. The settings on record: in vivo.
The nature of series [17]: Mean residence time in Wistar rat at 30 mg/kg, po. It counts as ADME, organism-based. Set-up: dose 30 mg/kg, route oral. To be noted: in vivo.
The species named for series [18] is Homo sapiens. The series can be described thus: Selectivity ratio of EC50 for human recombinant 5HT2B receptor to EC50 for human recombinant 5HT2C receptor.
Series [19] has as its target Serotonin 2 receptors; 5-HT2a & 5-HT2c (Homo sapiens) (UniProt P28223+P28335). The series can be described thus: Selectivity ratio of EC50 for human recombinant 5HT2A receptor to EC50 for human recombinant 5HT2C receptor.

Some results are limits rather than exact numbers.

T3 sequence (P41595 whole entry): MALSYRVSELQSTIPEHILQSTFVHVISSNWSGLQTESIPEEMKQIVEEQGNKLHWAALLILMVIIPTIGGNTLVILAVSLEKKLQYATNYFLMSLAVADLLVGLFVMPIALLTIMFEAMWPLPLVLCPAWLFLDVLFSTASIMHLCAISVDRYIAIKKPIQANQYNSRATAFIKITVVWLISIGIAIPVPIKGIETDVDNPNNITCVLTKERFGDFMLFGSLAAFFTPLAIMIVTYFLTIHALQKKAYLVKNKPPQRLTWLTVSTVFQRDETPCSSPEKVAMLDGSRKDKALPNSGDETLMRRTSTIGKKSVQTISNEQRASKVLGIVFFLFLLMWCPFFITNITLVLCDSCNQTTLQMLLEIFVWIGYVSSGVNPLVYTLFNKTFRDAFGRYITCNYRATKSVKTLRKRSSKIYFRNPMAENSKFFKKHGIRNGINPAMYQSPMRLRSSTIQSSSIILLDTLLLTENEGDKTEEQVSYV
Sequence of hERG (KCNH2) (Q12809 whole entry): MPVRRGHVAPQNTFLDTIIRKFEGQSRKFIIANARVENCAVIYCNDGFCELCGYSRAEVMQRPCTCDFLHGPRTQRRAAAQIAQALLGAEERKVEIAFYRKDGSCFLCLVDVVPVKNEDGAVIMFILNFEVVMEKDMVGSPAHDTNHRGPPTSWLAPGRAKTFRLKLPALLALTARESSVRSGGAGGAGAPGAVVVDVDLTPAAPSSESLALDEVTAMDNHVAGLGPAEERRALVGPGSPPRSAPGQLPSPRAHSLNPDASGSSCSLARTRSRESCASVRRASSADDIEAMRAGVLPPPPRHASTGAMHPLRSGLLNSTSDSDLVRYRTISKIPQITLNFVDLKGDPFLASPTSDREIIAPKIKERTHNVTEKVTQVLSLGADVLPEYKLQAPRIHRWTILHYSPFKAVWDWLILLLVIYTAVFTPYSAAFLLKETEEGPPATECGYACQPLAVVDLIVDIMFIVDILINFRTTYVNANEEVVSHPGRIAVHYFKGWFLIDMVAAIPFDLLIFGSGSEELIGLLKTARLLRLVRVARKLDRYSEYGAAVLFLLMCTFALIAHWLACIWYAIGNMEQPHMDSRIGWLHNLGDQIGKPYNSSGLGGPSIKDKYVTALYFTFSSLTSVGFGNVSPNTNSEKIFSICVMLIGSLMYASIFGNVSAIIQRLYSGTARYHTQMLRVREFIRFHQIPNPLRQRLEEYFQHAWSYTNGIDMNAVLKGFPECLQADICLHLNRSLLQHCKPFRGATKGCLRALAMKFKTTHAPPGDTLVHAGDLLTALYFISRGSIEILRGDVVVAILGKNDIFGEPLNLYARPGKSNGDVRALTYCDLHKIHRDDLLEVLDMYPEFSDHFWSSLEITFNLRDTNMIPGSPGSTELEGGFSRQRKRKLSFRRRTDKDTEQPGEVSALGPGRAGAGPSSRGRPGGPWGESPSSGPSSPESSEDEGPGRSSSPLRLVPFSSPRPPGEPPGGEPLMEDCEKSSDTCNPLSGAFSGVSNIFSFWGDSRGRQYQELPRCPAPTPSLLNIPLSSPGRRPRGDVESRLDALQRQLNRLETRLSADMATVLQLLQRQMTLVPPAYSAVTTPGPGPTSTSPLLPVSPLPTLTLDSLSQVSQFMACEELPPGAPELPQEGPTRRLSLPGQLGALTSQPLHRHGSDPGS
T1 sequence (P28223 whole entry): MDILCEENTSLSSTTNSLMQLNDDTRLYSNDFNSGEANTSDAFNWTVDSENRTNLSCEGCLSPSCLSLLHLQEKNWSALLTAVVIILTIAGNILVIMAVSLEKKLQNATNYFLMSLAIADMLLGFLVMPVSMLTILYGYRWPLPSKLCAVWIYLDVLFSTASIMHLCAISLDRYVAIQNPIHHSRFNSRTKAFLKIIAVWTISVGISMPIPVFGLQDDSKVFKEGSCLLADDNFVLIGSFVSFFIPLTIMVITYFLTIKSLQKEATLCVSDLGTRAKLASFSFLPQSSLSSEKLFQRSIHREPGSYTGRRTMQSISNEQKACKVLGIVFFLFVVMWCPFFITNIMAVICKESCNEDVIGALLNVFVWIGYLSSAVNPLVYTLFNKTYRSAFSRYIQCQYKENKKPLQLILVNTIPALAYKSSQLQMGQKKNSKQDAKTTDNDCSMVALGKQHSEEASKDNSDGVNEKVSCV
Sequence of Serotonin 2 receptors; 5-HT2a & 5-HT2c (Homo sapiens) (P28223 whole entry, looked up, one chain of several): as the sequence (P28223 whole entry) above

As a reminder, the Emax is the size of the effect at its maximum, as opposed to the concentration needed. The EC50 is the concentration that produces a half-maximal response. For `c1cc2nc3c(c(N4CCCC4)n2n1)CCNCC3`, the Emax in series [1] was 15%; in series [2], 110%; in [6] it was 36%. In addition, the figures for the EC50 in [3], in [4] and in [5] were 2240 nM, 764 nM and 2310 nM, respectively.

A word on the MRT: it is the average time that molecules of a dose stay in the body. As a reminder, the AUC is the area under the concentration-time curve, a measure of exposure. Low readings indicate less exposure, high ones more exposure. In general, inhibition refers to the percentage by which the read-out fell short of the control. The low end stands for little suppression, the high end for strong suppression. With `COc1ccc(OC2CN(c3c4c(nc5ccnn35)CCNCC4)C2)cc1`, the values for the MRT in [7] and in [17] were 13 h and over 24 h, respectively. The Papp A→B in series [8] is 10.4 ×10⁻⁶ cm/s. Also, in series [9], the AUC amounted to 0.72 µM·h. In addition, the Emax in [1] amounted to 21%; in [2], 76%; in [6], 31%. In addition, the results for the Ratio in series [10] and in series [16] were 1.3 and 0.15, respectively. In [11], the inhibition at 10 µM stood at 93%. In addition, the Activity in [12] worked out at 3.3%; in series [14], 3.2%. In addition, in series [13], the Vd came to 11 L/kg. The clearance in series [15] is 14 mL/min/kg. Further, the EC50 in series [3] turned out to be 503 nM; in [4], 95 nM; in series [5] it was 2630 nM.

For the molecule `COc1ccccc1OC1CN(c2c3c(nc4ccnn24)CCNCC3)C1`, the Emax in series [1] was 48%; in [2] it was 84%; in series [6] it was 89%. The molecule also returned an inhibition at 10 µM in series [11] of 88%. Also, the EC50 in series [3] is 379 nM; in series [4], 84 nM; in series [5], 2680 nM.

With `c1cc(OC2CN(c3c4c(nc5ccnn35)CCNCC4)C2)ccn1`, the Emax in series [1] stood at 27%; in [2], 102%; in series [6], 79%. The EC50 in series [3] came to 1160 nM; in [4], 574 nM; in [5], 1230 nM.

On to `Fc1ccc(OC2CN(c3c4c(nc5ccnn35)CCNCC4)C2)cc1`, for which the Emax amounted to 8% in [1], 95% in series [2] and 43% in series [6]. The molecule further showed an inhibition at 10 µM in series [11] of 95%. Moreover, the EC50 in series [3] worked out at 163 nM; in series [4] it was 23 nM; in series [5], 3 nM.

On to `Fc1cccc(OC2CN(c3c4c(nc5ccnn35)CCNCC4)C2)c1`, for which the Papp A→B in series [8] amounted to 7.9 ×10⁻⁶ cm/s. Also, the Emax in series [1] is 5%; in series [2], 78%; in series [6], 23%. Also, in series [10], the Ratio came out at 1.6. Besides, testing at 10 µM in series [11] gave an inhibition of 93%. Also, the EC50 was 13 nM in series [3], 25 nM in [4] and 32 nM in [5].

With `c1ccc(OC2CN(c3c4c(nc5ccnn35)CCNCC4)C2)cc1`, the Papp A→B in series [8] came out at 13.3 ×10⁻⁶ cm/s. In addition, the Emax in series [1] came out at 22%; in series [2], 95%; in [6] it was 58%. The Ratio in series [10] was 2.3. In series [11], this molecule returned an inhibition at 10 µM of 81%. For the same molecule, the values for the EC50 in series [3], in series [4] and in series [5] were 218 nM, 18 nM and 7770 nM, respectively.

For the molecule `c1cc2nc3c(c(N4CCCCC4)n2n1)CCNCC3`, the Emax in series [1] was found to be 10%; in series [2] it was 139%; in series [6], 28%. In addition, the EC50 in [3] was found to be 2850 nM; in series [4], 4560 nM; in [5], 585 nM.

Regarding `COc1cccc(OC2CN(c3c4c(nc5ccnn35)CCNCC4)C2)c1`, the Papp A→B in series [8] is 10.1 ×10⁻⁶ cm/s. Further, the Emax in series [1] is 9%; in series [2], 88%; in series [6], 43%. Further, in series [10], the Ratio is on record as 2.1. Further, testing at 10 µM in [11] gave an inhibition of 97%. The EC50 in [3] was 215 nM; in series [4] it was 65 nM; in [5], 40 nM.

For the molecule `CCN(C)c1c2c(nc3ccnn13)CCNCC2`, the Emax was found to be 105% in series [2] and 69% in series [6]. The EC50 in series [3] stood at 842 nM; in [4] it was 362 nM.

As for `c1cc2nc3c(c(N4CCC4)n2n1)CCNCC3`, the maximal response (Emax) in series [1] came out at 51%; in [2], 103%; in [6], 97%. Also, the values for the EC50 in series [3], in series [4] and in [5] were 94 nM, 5.4 nM and 2350 nM, respectively. In addition, the Ratio EC50 in series [18] is under 20; in series [19] it was over 100.

`O=C1Cc2cc(OC3CN(c4c5c(nc6ccnn46)CCNCC5)C3)ccc2N1`: the Emax in series [1] was found to be 86%; in series [2] it was 99%; in series [6], 82%. 10 µM produced 11% inhibition in [11]. The EC50 is 73 nM in [3], 8.4 nM in series [4] and 762 nM in series [5].

For the molecule `CCNc1c2c(nc3ccnn13)CCNCC2`, the Emax amounted to 62% in [1], 104% in series [2] and 97% in series [6]. The values for the EC50 in series [3], in [4] and in series [5] were 602 nM, 63 nM and 138 nM, respectively.

Take `Fc1ccccc1OC1CN(c2c3c(nc4ccnn24)CCNCC3)C1`: the figures for the Emax in series [1], in series [2] and in series [6] were 15%, 85% and 69%, respectively. The EC50 in series [3] was 94 nM; in series [4], 5 nM; in series [5], 648 nM.

Regarding `c1ccc(OC2CN(c3c4c(nc5ccnn35)CCNCC4)C2)nc1`, the Papp A→B in series [8] was determined as 10.3 ×10⁻⁶ cm/s. Moreover, the Emax is 29% in series [1], 93% in series [2] and 71% in series [6]. The Ratio in [10] turned out to be 2.2. In [11], this molecule registered an inhibition at 10 µM of 78%. In addition, the EC50 stood at 706 nM in [3], 37 nM in [4] and 5170 nM in series [5].

`c1cncc(OC2CN(c3c4c(nc5ccnn35)CCNCC4)C2)c1`: the Emax in series [1] is 94%; in [2], 99%; in [6], 73%. The EC50 in [3] came to 1480 nM; in series [4] it was 211 nM; in [5], 63 nM.

`CC(=O)N(C)c1ccc(OC2CN(c3c4c(nc5ccnn35)CCNCC4)C2)cc1`: the Papp A→B in [8] was 0.62 ×10⁻⁶ cm/s. Besides, the maximum response (Emax) was 35% in [1], 96% in series [2] and 60% in series [6]. The Ratio in series [10] worked out at 6.9. In series [11], this molecule returned an inhibition at 10 µM of 5%. Moreover, the results for the EC50 in series [3], in series [4] and in series [5] were 1180 nM, 188 nM and 2050 nM, respectively.

The values are drawn from ChEMBL document CHEMBL1641370, “Novel 6,7,8,9-tetrahydro-5H-1,4,7,10a-tetraaza-cyclohepta[f]indene analogues as potent and selective 5-HT(2C) agonists for the treatment of metabolic disorders” (Bioorg Med Chem Lett, 2011).
